Assay results taken from patent US8486995B2, “Acaricidal active substance combinations” (priority 2007, dated 2013).
Values after ≈ are worked out from the molar mass of the structure shown.

Legend:
Format in all cases: in vivo
[1] = system: fruit tree spider mite (Panonychus ulmi); experiment: Panonychus ulmi test (sprayed plum cuttings); settings: single active substance
Experimental: (§1) Solvent: 7 parts by weight of dimethylformamide
(§2) Emulsifier: 2 parts by weight of alkylaryl polyglycol ether
(§3) To prepare a suitable preparation of active substance, 1 part by weight of active substance is mixed with the stated amounts of solvent and emulsifier, and the concentrate is diluted with water to the desired concentrations.
Plum cuttings (Prunus domestica) which are infected with a mixed population of the fruit tree spider mite (Panonychus ulmi) are sprayed with the active substance preparation at the desired concentration.
(§4) After the desired period of time, the destruction is determined in %. In this context, 100% means that all spider mites have been destroyed; 0% means that no spider mites have been destroyed.

[2] = system: common spider mite (Tetranychus urticae); experiment: Tetranychus urticae test (OP-resistant; sprayed cucumbers); settings: single active substance
Experimental: Tetranychus urticae Test (OP-Resistant)
as §1, §2, §3
Cucumbers (Cucumis sativus) which are severely infected with the common spider mite (Tetranychus urticae) are sprayed with the active substance preparation at the desired concentration.
as §4

[3] = system: citrus spider mite (Panonychus citri); experiment: Panonychus citri test (sprayed citrus plants); settings: single active substance; for LC 50 in mg/l after 1d: Citrus limon; for LC50: Panonychus citri, in Citrus x limon, 24 h, after 1 d, read-out: LC 50 in mg/l after 1d
Experimental: as §1, §2, §3
Citrus plants (Citrus limon) which are infected with a mixed population of the citrus spider mite (Panonychus citri) are sprayed with the active substance preparation at the desired concentration.
as §4

COc1ccc(-c2ccccc2)cc1NNC(=O)OC(C)C [Bifenazate (II), bifenazate]
Destruction in % after 2d ([1]; 0.8 ppm, plum cuttings): 10%
Destruction in % after 6d ([2]; 0.16 ppm, cucumbers): 15%

CC(C)(C)c1ccc(CSc2cnn(C(C)(C)C)c(=O)c2Cl)cc1 [Pyridaben (IV), pyridaben]
LC 50 in mg/l after 1d [3]: 31.41 mg/L (≈ 86.1 µM)

abamectin [Abamectin (VI)]
Destruction in % after 2d ([1]; 0.16 ppm): 0%
LC 50 in mg/l after 1d [3]: 1.0054 mg/L

CC(C)(C)c1ccc(CCOc2ncnc3ccccc23)cc1 [Fenazaquin (V), fenazaquin]
Destruction in % after 2d ([1]; 0.8 ppm, plum cuttings): 0%
Destruction in % after 6d ([2]; 0.16 ppm, cucumbers): 0%
LC50 [3]: 10.2 mg/L (≈ 33.3 µM)

CCC(C)(C)C(=O)OC1=C(c2ccc(Cl)cc2Cl)C(=O)OC12CCCCC2 [Spirodiclofen (I), Spirodiclofen]
Destruction in % after 2d ([1]; 0.8 ppm, plum cuttings): 5%
Destruction in % after 2d ([1]; 4 ppm): 15%
Destruction in % after 6d ([2]; 0.032 ppm): 15%
Destruction in % after 6d ([2]; 0.16 ppm, cucumbers): 25%
LC50 [3]: 12.3 mg/L (≈ 29.8 µM)
